Experiments:
[1] = system: dogs with chronic heart failure produced by multiple sequential intracoronary microembolizations; experiment: Hemodynamic measurements in dogs with chronic heart failure, 3 months oral therapy; format: in vivo, dog
Description: (§1) The following example examines the effects of ranolazine alone and in combination with an angiotensin converting enzyme (ACE) inhibitor and in combination with a beta-blocker on the progression of left ventricular (LV) dysfunction and LV chamber remodeling in dogs with chronic heart failure produced by multiple sequential intracoronary microembolizations.
(§2) Chronic LV dysfunction and failure in dogs was produced by multiple sequential intracoronary embolizations with polystyrene Latex microspheres (77-109 μm in diameter) as previously described by Sabbah et al. (1991) Am. J. Physiol. 260:H1379-H1384. Coronary microembolizations were performed during cardiac catheterization under general anesthesia and sterile conditions. Anesthesia was induced using a combination of intravenous injections of hydromorphone (0.22 mg/kg), diazepam (0.2-0.6 mg/kg) and sodium pentobarbital 50-100 mg to effect. Plane of anesthesia was maintained throughout the study using 1% to 2% isoflurane. Left and right heart catheterization was performed via a femoral arteriotomy and venotomy. After each catheterization, the vessels were repaired using 6-0 silk and the skin closed with 4-0 suture. Microembolizations were discontinued when LV ejection fraction, determined angiographically, was between 30% and 40%. A period of 2 weeks was allowed after the last embolization to ensure that infarctions produced by the last microembolizations have completely healed and heart failure was established. The study protocol was then performed.
(§3) Healthy, conditioned, purpose-bred mongrel dogs weighing between 19 and 25 kg.
(§4) A randomized, blinded, placebo controlled study design was used. A total of 28 dogs underwent multiple sequential intracoronary microembolizations as described above to produce chronic heart failure. Two weeks after the last embolization, dogs were randomized into 4 study groups (treatment arms). Dogs were randomized to 3 months oral therapy with ranolazine alone (375 mg, bid, n=7), ranolazine (375 mg bid) in combination with metoprolol tartrate (25 mg bid, n=7), ranolazine (375 mg bid) in combination with enalapril (10 mg bid, n=7), or placebo (ranolazine vehicle bid, n=7). Hemodynamic, angiographic, echocardiographic, Doppler and neurohumoral measurements were made prior to randomization (2 weeks after the last embolization) and after completion of therapy (3 months after initiating therapy). After completing the final hemodynamic and angiographic study, dogs were euthanized and the hearts removed and tissue prepared and saved for future histological and biochemical evaluations. The study primary and secondary end-points were as follows:
All hemodynamic measurements were made during left and right heart catheterizations in anesthetized dogs. Baseline measurements, prior to any microembolizations, were be made to ensure that all hemodynamic parameters are within normal limits. Abnormal dogs were excluded from the study. The following parameters were measured in all dogs at all three study time periods: heart rate, mean aortic pressure, peak rate of change of LV pressure during isovolumic contraction (peak+dP/dt) and relaxation (peak−dP/dt), and LV end-diastolic pressure.
To ensure that all study measures were similar at baseline, comparisons were made between all 4 study groups before any embolizations and at the time of randomization before initiation of therapy. For these comparisons, a one way analysis of variance (ANOVA) was used with a set at 0.05. If significance was attained, then group wise comparisons were made using the Student-Newman-Kuels test with significance set at p≦0.05. Within group comparisons between pre-treatment and post-treatment measures were made using a Students paired t-test with p<0.05 considered significant. To assess treatment effect, the change (Δ) in each measure from pre-treatment to post-treatment was calculated for each of the 4 study arms. […]

[2] = system: dogs with chronic heart failure produced by multiple sequential intracoronary microembolizations; experiment: Blood neurohumoral and electrolyte measurements in dogs with chronic heart failure; format: in vivo, dog; details: mean±SEM; for T-PNE = transmyocardial norepinephrine: aorta minus coronary sinus
Description: as §1, §2, §3, §4
Evaluation of plasma concentrations of several neurohormones were made to complement the hemodynamic assessments. Measurements were made at each of the study time periods described for hemodynamic and angiographic assessments. Transmyocardial PNE concentration was estimated by obtaining blood samples from the ascending aorta and coronary sinus during cardiac catheterization. Transmyocardial PNE was calculated as the difference between the two samples. Venous blood samples were obtained in duplicate from conscious dogs prior to cardiac catheterizations for measurement of plasma concentration of norepinephrine, plasma renin activity and plasma atrial natriuretic factor using radioimmunoassay. In addition, blood samples were obtained at the same time intervals for determination of serum electrolytes (Na+, K+, creatinine and BUN).
To ensure that all study measures were similar at baseline, comparisons were made between all 4 study groups before any embolizations and at the time of randomization before initiation of therapy. For these comparisons, a one way analysis of variance (ANOVA) was used with a set at 0.05. If significance was attained, then group wise comparisons were made using the Student-Newman-Kuels test with significance set at p≦0.05. […]

[3] = POST: after 3 months of oral therapy bid, mean±SEM
[4] = PRE: at time of randomization, before therapy, mean±SEM
[5] = change from pre-treatment to post-treatment (3 months), mean±SEM
[6] = POST: after 3 months of oral therapy bid
[7] = PRE: at time of randomization, before therapy
[8] = change from pre-treatment to post-treatment (3 months)

COc1ccccc1OCC(O)CN1CCN(CC(=O)Nc2c(C)cccc2C)CC1 (racemic) [RAN Alone, (±)-N-(2,6-dimethylphenyl)-4-[2-hydroxy-3-(2-methoxyphenoxy)-propyl]-1-piperazineacetamide]
+dP/dt = peak LV +dP/dt [1, 3]: 1416 ± 124 mmHg/sec
HR = heart rate [1, 3]: 80 ± 4 beats/min
LVEDP = LV end-diastolic pressure [1, 3]: 10 ± 1 mmHg
mAoP = mean aortic pressure [1, 3]: 81 ± 7 mmHg
−dP/dt = peak LV −dP/dt [1, 3]: 1460 ± 134 mmHg/sec
+dP/dt = peak LV +dP/dt [1, 4]: 1253 ± 119 mmHg/sec
HR = heart rate [1, 4]: 77 ± 2 beats/min
LVEDP = LV end-diastolic pressure [1, 4]: 14 ± 1 mmHg
mAoP = mean aortic pressure [1, 4]: 72 ± 3 mmHg
−dP/dt = peak LV −dP/dt [1, 4]: 1254 ± 74 mmHg/sec
LV end-diastolic pressure, intra-group comparison pre- vs post-treatment ([1]; at the end of 3 months of treatment): decreased significantly
Δ +dP/dt (peak LV +dP/dt) [1, 5]: 163 ± 81 mmHg/sec
Δ HR (heart rate) [1, 5]: 3.3 ± 4.9 beats/min
Δ LVEDP (LV end-diastolic pressure) [1, 5]: −4.4 ± 1.1 mmHg
Δ mAoP (mean aortic pressure) [1, 5]: 9.1 ± 6.9 mmHg
Δ −dP/dt (peak LV −dP/dt) [1, 5]: 206 ± 109 mmHg/sec
T-PNE = transmyocardial norepinephrine [2, 6]: −2.9 ± 6.1
ANF = atrial natriuretic factor [2, 6]: 67 ± 11 pg/mL
BUN = blood urea nitrogen [2, 6]: 15 ± 2 mg/dL
Creat = serum creatinine [2, 6]: 1.0 ± 0.1 mg/dL
K+ (serum electrolyte) [2, 6]: 4.7 ± 0.1
Na+ (serum electrolyte) [2, 6]: 147 ± 0.8
PNE = plasma norepinephrine [2, 6]: 199 ± 43 pg/mL
PRA = plasma rennin activity [2, 6]: 1.57 ± .55 ng/mL/h
T-PNE = transmyocardial norepinephrine [2, 7]: 8.6 ± 7.0
ANF = atrial natriuretic factor [2, 7]: 87 ± 15 pg/mL
BUN = blood urea nitrogen [2, 7]: 18 ± 2 mg/dL
Creat = serum creatinine [2, 7]: 0.9 ± 0.0 mg/dL
K+ (serum electrolyte) [2, 7]: 4.5 ± 0.1
Na+ (serum electrolyte) [2, 7]: 147 ± 0.5
PNE = plasma norepinephrine [2, 7]: 217 ± 25 pg/mL
PRA = plasma rennin activity [2, 7]: 1.69 ± .71 ng/mL/h
Δ ANF (atrial natriuretic factor) [2, 8]: 20 ± 14 pg/mL
Δ BUN (blood urea nitrogen) [2, 8]: -2.1 ± 1.4 mg/dL
Δ Creat (serum creatinine) [2, 8]: 0.0 ± 0.1 mg/dL
Δ K+ [2, 8]: 0.1 ± 0.1
Δ Na+ [2, 8]: −0.3 ± 1.0
Δ PNE (plasma norepinephrine) [2, 8]: -19 ± 42 pg/mL
Δ PRA (plasma rennin activity) [2, 8]: 0.13 ± 0.92 ng/mL/h
Δ T-PNE (transmyocardial norepinephrine) [2, 8]: −11 ± 9
